Read-outs that look alike come from different tables or passages of the source.
Experiments:
[1] = fluids of WO 2012/080246; cited from earlier work
[2] = boiling point (ASTM D1120-94); assay type: physicochemical; conditions: at 1013 hPa
Procedure: (i) a boiling point of −4.7° C. at 1013 hectopascals (hPa) (boiling point measured in accordance with ASTM D1120-94 “Standard Test Method of Boiling Point of Engine Coolants”);
(i′) a boiling point of −127.8° C. at 1013 hPa (boiling point measured in accordance with ASTM D1120-94);

[3] = saturated vapor pressure of i-C3F7CN and corresponding pressure raised to 20° C.; assay type: physicochemical
Procedure: However, since equipment is usually filled with gas at ambient temperature, the pressure to which reference is made in order to fill the equipment with heptafluoroisobutyronitrile is the pressure PTfill that corresponds, at the filling temperature, e.g. 20° C., to the PVS presented by said compound at the lowest utilization temperature Tmin of said equipment. This correspondence is given, for each compound, by the formula: […]
with Tmin expressed in kelvins.
By way of example, the Table II below gives the saturated vapor pressures, referenced PVSi-C3F7CN and expressed in hectopascals, presented by heptafluoroisobutyronitrile at temperatures of 0° C., −5° C., −10° C., −15° C., −20° C., −25° C., −30° C., −35° C., and −40° C., as well as the pressures, referenced P and expressed in hectopascals, which correspond to those saturated vapor pressures raised to 20° C.

SMILES | boiling point [1] [°C] | boiling point [2] [°C] | PVSi-C3F7CN saturated vapor pressure ([3]; 0° C.) [hPa] | Pi-C3F7CN pressure corresponding to the saturated vapor pressure raised to 20° C. ([3]; PVS at 0° C. raised to 20° C.) [hPa] | Pi-C3F7CN pressure corresponding to the saturated vapor pressure raised to 20° C. ([3]; PVS at −5° C. raised to 20° C.) [hPa] | Pi-C3F7CN pressure corresponding to the saturated vapor pressure raised to 20° C. ([3]; PVS at −10° C. raised to 20° C.) [hPa] | Pi-C3F7CN pressure corresponding to the saturated vapor pressure raised to 20° C. ([3]; PVS at −15° C. raised to 20° C.) [hPa] | Pi-C3F7CN pressure corresponding to the saturated vapor pressure raised to 20° C. ([3]; PVS at −20° C. raised to 20° C.) [hPa] | Pi-C3F7CN pressure corresponding to the saturated vapor pressure raised to 20° C. ([3]; PVS at −25° C. raised to 20° C.) [hPa] | Pi-C3F7CN pressure corresponding to the saturated vapor pressure raised to 20° C. ([3]; PVS at −30° C. raised to 20° C.) [hPa] | Pi-C3F7CN pressure corresponding to the saturated vapor pressure raised to 20° C. ([3]; PVS at −35° C. raised to 20° C.) [hPa] | Pi-C3F7CN pressure corresponding to the saturated vapor pressure raised to 20° C. ([3]; PVS at −40° C. raised to 20° C.) [hPa] | PVSi-C3F7CN saturated vapor pressure ([3]; −5° C.) [hPa] | PVSi-C3F7CN saturated vapor pressure ([3]; −10° C.) [hPa] | PVSi-C3F7CN saturated vapor pressure ([3]; −15° C.) [hPa] | PVSi-C3F7CN saturated vapor pressure ([3]; −20° C.) [hPa] | PVSi-C3F7CN saturated vapor pressure ([3]; −25° C.) [hPa] | PVSi-C3F7CN saturated vapor pressure ([3]; −30° C.) [hPa] | PVSi-C3F7CN saturated vapor pressure ([3]; −35° C.) [hPa] | PVSi-C3F7CN saturated vapor pressure ([3]; −40° C.) [hPa]
O=C(C(F)(F)F)C(F)(C(F)(F)F)C(F)(F)F [fluoroketone C5] | 23 |  |  |  |  |  |  |  |  |  |  |  |  |  |  |  |  |  |  | 
O=C(C(F)(F)C(F)(F)F)C(F)(C(F)(F)F)C(F)(F)F [fluoroketone C6] | 49 |  |  |  |  |  |  |  |  |  |  |  |  |  |  |  |  |  |  | 
N#CC(F)(C(F)(F)F)C(F)(F)F [i-C3F7CN, 2,3,3,3-tetrafluoro-2-trifluoromethyl propanenitrile] |  | −4.7 | 1177 | 1264 | 1058 | 877 | 720 | 583 | 466 | 368 | 286 | 218 | 968 | 788 | 634 | 504 | 395 | 305 | 232 | 173
